Like-named read-outs stand apart in the source and are kept apart here.
Key:
[1] = target: T1, Intrinsic factor (Homo sapiens, UniProt P27352); experiment: IF binding, chase experiment with 57Co radiolabeled B12; details: read-out: binding affinity to IF
T1 construct: purchased Xeragenx LLC XGX-003; host or cells: Arabidopsis (transgenic plant)
From the text: Peptides were purchased through CSBio (Menlo Park, Calif.) and all materials were purchased through Sigma-Aldrich unless stated otherwise. Apo-IF was supplied by Xeragenx LLC (cat no: XGX-003). […] IF used in these assays was produced in the plant Arabidopsis in the apo-form and of high purity

[2] = target: T1, Intrinsic factor; details: general statement in description; read-out: IF binding affinity (Kd); cited from earlier work

T1 sequence (P27352 19-417): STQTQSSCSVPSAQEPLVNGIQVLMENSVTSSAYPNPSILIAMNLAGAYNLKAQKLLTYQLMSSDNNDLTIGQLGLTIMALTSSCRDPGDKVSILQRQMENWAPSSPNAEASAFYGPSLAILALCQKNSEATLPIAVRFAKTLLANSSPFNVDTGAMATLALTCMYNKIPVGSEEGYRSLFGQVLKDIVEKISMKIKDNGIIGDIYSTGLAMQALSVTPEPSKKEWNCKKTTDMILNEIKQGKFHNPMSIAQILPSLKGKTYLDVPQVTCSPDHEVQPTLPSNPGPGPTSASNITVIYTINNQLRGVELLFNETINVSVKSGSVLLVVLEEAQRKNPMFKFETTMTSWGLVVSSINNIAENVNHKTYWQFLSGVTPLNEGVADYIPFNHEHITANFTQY

Substance: cyanocobalamin [Compound B12]
- Kd [1]: 0.12 nM
- Kd [2]: ~0.001 nM

— patent US11771772B2, “Glycemic control using intrinsic factor bound to a vitamin B12 conjugate of a glucagon-like peptide-1 receptor agonist” (Syracuse University, priority 2015, dated 2023)
